Results filed as inconclusive are left out. Active and inactive are the calls of the source.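 Rule for the calls: active = compounds lowering the luciferase signal with a fitted half-maximal dose at most twice their top valid dose (cut at about 30 µM in these data); inconclusive = flat fits with moderate signal loss, or poor fits; inactive = the rest.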
system: Clone20 osteoblast Shn3 3'UTR firefly luciferase, 24 h; test: Schnurri-3 3'UTR-luciferase signal suppressors – cell-based, Clone20 osteoblasts, luminescence, dry powder, set 2, dose response (AID 743417)

Compound | AC50
COc1ccccc1OCC(=O)c1[nH]c(C)c(C(C)=O)c1C | 3.35 µM
O=C(OCCC12CC3CC(CC(C3)C1)C2)c1ccc(NCc2cc(O)ccc2O)cc1 | 1.82 µM
COc1ccc(CCNc2cc(N3CCN(C(=O)c4ccccc4OC)CC3)ccc2[N+](=O)[O-])cc1OC | 2.63 µM
CN1C(=O)c2cccc(NCCCCCCN3C(=O)c4ccccc4C3=O)c2C1=O | 5.57 µM
Cc1cccc(N2C(=O)NC(=O)/C(=C\C=C\c3ccco3)C2=O)c1 | 3.06 µM
O=C(CSc1nnc(-c2ccc(Cl)cc2Cl)n1C1CCCCC1)N1CCCC1 | > 70 µM (inactive)
COc1ccc(C(=O)NCCN(C)C)c2nc3ccccc3cc12 | 5.78 µM
CC(C)OC(=O)c1ccc(NCc2cc(O)ccc2O)cc1Cl | 2.15 µM
COc1ccccc1-c1cc(C(F)(F)F)nc(S(=O)(=O)CCCC(=O)Nc2cccnc2Cl)n1 | 10.6 µM
Fc1ccc(/C=C2\CCCC3=C2Nc2ncnn2C3c2ccc(F)cc2)cc1 (stereo not drawn) | 8.47 µM
COc1ccc(-c2nc(NC(=O)C3CC(=O)N(c4ccc5c(c4)OCCO5)C3)sc2C)cc1 (stereo not drawn) | 5.24 µM
CCOc1cc(CNCCc2ccc(S(N)(=O)=O)cc2)ccc1OCc1ccc(Cl)cc1 | 3.87 µM
CC(N)C(=O)NC1C2C(=C(O)CC(O)C2O)C(=O)OC1(C)C(Cl)Cl (stereo not drawn) | 1.85 µM
CCCCC(=O)NC(c1ccccc1Cl)c1ccc2cccnc2c1O (stereo not drawn) | 1.12 µM
COc1cccc(CNCCc2c[nH]c3ccccc23)c1OCc1ccccc1 | 4.09 µM
Cn1c(=O)[nH]c(=O)c2c1nc([N+](=O)[O-])n2Cc1ccccc1 | 1.9 µM
COc1ccc(C(NC(C)=O)c2cc(Cl)c3cccnc3c2O)cc1 (stereo not drawn) | 1.61 µM
C[C@H](O)C#Cc1ccc2c(c1)O[C@@H](CN(C)Cc1ccc(-c3ccccc3)cc1)[C@H](C)CN([C@@H](C)CO)S2(=O)=O | 10.3 µM
O=C(CSc1c2c(nc3ccc(Cl)cc13)CCCC2)NCc1ccco1 | 5.71 µM
CCCCC(=O)NC(c1ccc(N(C)C)cc1)c1ccc2cccnc2c1O (stereo not drawn) | 0.98 µM
O=C(c1ccccc1)N1CCN(c2ncnc3sc4c(c23)CCC4)CC1 | 4.14 µM
CC(Nc1ncnc2sccc12)c1ccccc1 (stereo not drawn) | 0.505 µM
O=S(=O)(Nc1cccc2ncccc12)c1cccs1 | 4.3 µM
Cc1nc2ccc(NS(=O)(=O)c3ccc4c(c3)OCCO4)cc2s1 | 0.635 µM
NC(=O)CC(NC(=O)c1ccc(Br)cc1)c1ccc(N2CCC(Br)CC2)c([N+](=O)[O-])c1 (stereo not drawn) | 4.19 µM
CC(C)(C)c1ccc(CN2C3=NCCCN3c3ccccc32)cc1 | 0.836 µM
CCc1nnc(NC(=O)c2cccc(C(=O)Nc3nnc(CC)s3)n2)s1 | 1.45 µM

Compound | AC50
Cn1cc([N+](=O)[O-])c(C(=O)Nc2cc(Oc3ccccc3)cc([N+](=O)[O-])c2)n1 | 5.41 µM
COc1ccc(CNC(=O)c2cc3c(C)nc4ccccc4c3o2)c(OC)c1 | 3.22 µM
Cn1c(SCc2ccc(F)cc2Cl)nc2ccccc2c1=O | 8.65 µM
O=C1NC2C(=CC(O)C(O)C2O)c2cc3c(c(O)c21)OCO3 (stereo not drawn) | < 0.26 µM
CC(C)c1nnc(NC(=O)CCS(=O)(=O)c2nc(-c3cccs3)cc(C(F)(F)F)n2)s1 | 3.02 µM
CNS(=O)(=O)c1cccc(C(=O)OCc2cc(C(C)=O)ccc2OC)c1 | 11.2 µM
CCCN1C(=O)S/C(=C\c2ccc(N3CCOCC3)o2)C1=O | 6.37 µM
c1coc(CN(Cc2ccco2)c2ncnc3c2oc2ccccc23)c1 | 5.45 µM
Oc1ccc(CN2CCc3ccccc3C2)c2cccnc12 | 0.673 µM
CC(Sc1nc2ccccc2c(=O)n1C)C(=O)N(C)C1CCCCC1 (stereo not drawn) | 2.27 µM
C[C@H](NC(=O)c1nc[nH]c1C(=O)NCc1ccc(CNC(=O)OC(C)(C)C)cc1)c1ccccc1 | 11.7 µM
Cc1cc(C(=O)NNS(=O)(=O)c2cc(C(=O)O)ccc2Cl)c(C)n1-c1ccccc1 | 25.7 µM
C=CCNc1nc(-c2ccccn2)nnc1-c1ccccc1 | 3.17 µM
OC(c1cc(-c2ccc(C(F)(F)F)cc2)nc(C(F)(F)F)c1)C1CCCCN1 (stereo not drawn) | 4.73 µM
COC(=O)c1ccc(NC(=O)c2nc(S(=O)(=O)Cc3cccc(C)c3)ncc2Cl)cc1 | 1.35 µM
CCCCCn1c(=N)n(CC(O)COc2ccccc2OC)c2ccccc21 (stereo not drawn) | 2.12 µM
Cc1ccc([N+](=O)[O-])cc1NC(=O)Nc1cccc(F)c1 | 2.21 µM
Cc1ccc(-n2ncc3c2CCCC3NC(=O)c2ocnc2C)cc1C (stereo not drawn) | 1.29 µM
CC(C)C1C(=O)N(Cc2cn(CCC3OCCO3)nn2)CCS(=O)(=O)N1Cc1ccc(-c2ccc(Cl)cc2)cc1 (stereo not drawn) | 2.13 µM
COc1cccc(NC(=O)c2nc(S(C)(=O)=O)ncc2Cl)c1 | 0.834 µM
CCOC(=O)c1cnc(-n2nc(C)cc2C)nc1NNc1cc(C)nc(-c2ccccc2)n1 | 3.31 µM
COc1ccc(C(=O)C(CN2CCOCC2)c2ccccc2)cc1 (stereo not drawn) | 5.59 µM
O=C(NCCc1ccccc1)c1ccc2c(c1)OCCO2 | 2.16 µM
CCN(CC)CCNc1cc(C)nc2c1C(=O)C(=O)C=C2N1CCCCC1 | 6.61 µM
Cc1ccc2nc(NC(=O)C3CCN(S(=O)(=O)c4ccc5c(c4)oc(=O)n5C)CC3)sc2c1 | 3.35 µM
CCCOc1ccc(C(=O)C(CN2CCCC2)c2ccccc2)cc1 (stereo not drawn) | 4.84 µM

— PubChem BioAssay AID743417 (Broad Institute, 2014)
